Assay results reported in patent publication US20110212053A1, “PHOSPHATIDYLINOSITOL 3 KINASE INHIBITORS” (priority 2008, published 2011).
Where “and” joins values, the source holds several entries; their conditions need not be identical. Identical values can stand only once.

Tests used:
[1] = molecular target: PDGFRα(D842V) (Homo sapiens, UniProt P16234, D842V); experiment: Radiometric HotSpot kinase assay, PDGFRα(D842V); assay type: biochemical
Protocol: (§1) Kinase Profiling: The inhibitory activity of the PI3K inhibitor compounds of the invention against 250 protein kinases was determined via the radiometric HotSpot Kinase Profiling (Reaction Biology Corporation, Malvern, Pa.). Compounds were profiled at a final concentration of 1 μM compound against recombinant protein kinases in the presence of 10 μM ATP and data were expressed as percent inhibition. IC50 and/or percent inhibition at 1 μM compound values were determined for select compounds against a subset of kinases (MELK, MNK1, MNK2, mTOR, PIM-1. TRKC, and PDGFRα(D842V)).
(§2) Compounds of the invention were assayed against the select kinases using the KinaseGLO assay (MELK) or the radiometric assay (PIM, TRKC, PDGFRα(D842V), MNK1 and mTOR). IC50 values were determined using 8-10 point half-log dose dilutions and calculated via nonlinear regression analysis using Graphpad Prism data analysis software.

[2] = molecular target: T1, MELK (Homo sapiens, UniProt Q14680); experiment: MELK kinase assay (KinaseGLO); assay type: biochemical
T1 construct: purchased Invitrogen or Millipore
T1 sequence (Q14680 whole entry): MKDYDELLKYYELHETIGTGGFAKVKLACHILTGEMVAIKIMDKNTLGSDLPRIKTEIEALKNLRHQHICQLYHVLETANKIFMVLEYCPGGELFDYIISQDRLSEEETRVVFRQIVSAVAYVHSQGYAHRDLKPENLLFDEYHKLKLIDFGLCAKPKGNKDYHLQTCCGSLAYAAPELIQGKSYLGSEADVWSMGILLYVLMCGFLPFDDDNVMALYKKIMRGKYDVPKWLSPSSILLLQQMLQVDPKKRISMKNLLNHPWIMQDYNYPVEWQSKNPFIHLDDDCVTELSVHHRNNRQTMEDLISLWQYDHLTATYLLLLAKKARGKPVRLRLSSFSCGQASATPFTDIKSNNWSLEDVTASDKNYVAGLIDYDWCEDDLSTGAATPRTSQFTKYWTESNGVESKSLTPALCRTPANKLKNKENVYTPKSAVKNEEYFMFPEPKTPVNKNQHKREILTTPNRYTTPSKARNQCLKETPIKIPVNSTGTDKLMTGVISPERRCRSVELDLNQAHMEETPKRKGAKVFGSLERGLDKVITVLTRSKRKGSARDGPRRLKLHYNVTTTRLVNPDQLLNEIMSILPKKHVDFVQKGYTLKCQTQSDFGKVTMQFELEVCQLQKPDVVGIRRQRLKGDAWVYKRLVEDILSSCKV
Protocol: (§3) Compound Preparation: KinaseGLO assay: 30× stocks of inhibitors were prepared in DMSO. A 10 mM master stock was prepared and all other stocks were generated by serial dilution of this master stock in DMSO. The final concentration of DMSO in the kinase reaction was 3.3% (v/v).
MELK kinase assay: The ability of compounds to inhibit MELK was also determined using the KinaseGLO assay. Briefly, MELK enzymes was thawed and diluted to a final concentration of 2.64 ng/μL in reaction buffer (50 mM HEPES, pH7.5, 100 mM NaCl, 2.0 mM DTT, 3.0 mM MgCl2, 1.0 mM EGTA, 10 μM ATP). 19 μl of this kinase reaction mixture was aliquoted into test wells (50 ng MELK/well) in a Microfluor2 white 96-well plate (Thermo Scientific). As a preincubation step, 1 μl of 30× compound dilutions was added to the appropriate test wells to generate a ten point dose-response ranging from 0.0 μM-10 μM inhibitor, and incubated for 15 minutes at 4° C. The reaction was started by addition of 10 μL of 150 μM ZIPtide peptide substrate resuspended in reaction buffer (50 μM final concentration of ZIPtide). Reactions were incubated at room temperature for 2 hours prior to addition of 30 μL of KinaseGLO reagent and development as described. Maximal luminescence (no MELK activity/maximal MELK inhibition) was determined from reaction buffer plus peptide substrate only controls. The minimal signal (maximal MELK activity) was determined by the 0.0 μM compound (DMSO only) control. IC50 values were calculated via non-linear regression using GraphPad Prism data analysis software. […]
as §2

[3] = molecular target: T2, PI3Kα (Homo sapiens, UniProt P42336); experiment: KinaseGLO luminescent PI3-kinase assay, PI3Kα; assay type: biochemical
T2 construct: purchased Invitrogen or Millipore
T2 sequence (P42336 whole entry): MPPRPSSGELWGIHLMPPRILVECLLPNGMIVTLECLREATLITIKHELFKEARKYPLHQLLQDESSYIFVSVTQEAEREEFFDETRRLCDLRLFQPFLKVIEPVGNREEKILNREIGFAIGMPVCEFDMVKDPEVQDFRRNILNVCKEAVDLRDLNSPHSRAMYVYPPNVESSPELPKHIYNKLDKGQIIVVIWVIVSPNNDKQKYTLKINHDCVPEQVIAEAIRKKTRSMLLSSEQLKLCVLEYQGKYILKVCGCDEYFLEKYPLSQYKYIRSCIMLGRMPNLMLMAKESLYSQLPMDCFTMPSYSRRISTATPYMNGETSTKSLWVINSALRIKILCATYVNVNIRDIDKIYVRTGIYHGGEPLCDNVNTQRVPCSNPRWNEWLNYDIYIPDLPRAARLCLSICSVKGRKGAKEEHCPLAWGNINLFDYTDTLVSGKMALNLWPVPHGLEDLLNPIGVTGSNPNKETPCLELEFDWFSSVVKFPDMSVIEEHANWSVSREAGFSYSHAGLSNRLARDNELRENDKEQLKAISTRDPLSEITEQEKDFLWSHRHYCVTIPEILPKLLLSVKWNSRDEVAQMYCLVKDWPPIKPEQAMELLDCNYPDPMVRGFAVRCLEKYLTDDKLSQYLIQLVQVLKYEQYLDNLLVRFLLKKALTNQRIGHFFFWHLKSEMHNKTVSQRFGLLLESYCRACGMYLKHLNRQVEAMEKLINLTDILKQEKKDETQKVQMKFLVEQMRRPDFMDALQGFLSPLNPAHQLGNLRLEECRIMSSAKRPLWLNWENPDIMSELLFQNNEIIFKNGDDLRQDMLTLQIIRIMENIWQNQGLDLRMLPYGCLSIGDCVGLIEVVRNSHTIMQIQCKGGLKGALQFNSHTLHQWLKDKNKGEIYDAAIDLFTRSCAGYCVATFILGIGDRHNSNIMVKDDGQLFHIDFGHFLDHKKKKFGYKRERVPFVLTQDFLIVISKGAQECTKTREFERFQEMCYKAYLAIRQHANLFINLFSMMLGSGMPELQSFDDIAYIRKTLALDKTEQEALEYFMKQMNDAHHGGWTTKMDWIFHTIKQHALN
T2 sequence (P27986 whole entry partner): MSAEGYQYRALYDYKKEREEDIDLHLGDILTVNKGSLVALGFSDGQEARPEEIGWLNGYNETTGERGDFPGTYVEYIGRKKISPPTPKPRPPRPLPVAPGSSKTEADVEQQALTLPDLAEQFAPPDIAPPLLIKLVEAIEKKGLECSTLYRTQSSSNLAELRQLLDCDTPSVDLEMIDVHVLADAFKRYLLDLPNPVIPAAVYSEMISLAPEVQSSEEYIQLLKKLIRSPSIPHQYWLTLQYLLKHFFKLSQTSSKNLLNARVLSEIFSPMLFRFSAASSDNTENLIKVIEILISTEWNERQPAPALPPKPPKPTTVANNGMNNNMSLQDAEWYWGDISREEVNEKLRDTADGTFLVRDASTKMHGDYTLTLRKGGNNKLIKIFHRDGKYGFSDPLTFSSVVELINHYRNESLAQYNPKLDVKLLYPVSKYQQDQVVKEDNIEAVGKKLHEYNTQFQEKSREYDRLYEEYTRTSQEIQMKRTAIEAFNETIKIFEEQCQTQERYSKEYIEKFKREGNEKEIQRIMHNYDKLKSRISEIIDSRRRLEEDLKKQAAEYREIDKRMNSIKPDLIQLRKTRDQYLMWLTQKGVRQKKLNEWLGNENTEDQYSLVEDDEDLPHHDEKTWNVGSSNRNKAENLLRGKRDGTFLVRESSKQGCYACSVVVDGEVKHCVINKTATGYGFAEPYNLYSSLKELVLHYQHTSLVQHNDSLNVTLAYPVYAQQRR
Protocol: as §3
PI3-Kinase Assay: The KinaseGLO® Luminescent Kinase Assay (Promega) is a luciferin-luciferase based luminescent assay that utilizes a proprietary thermostable luciferase to quantify the ATP remaining in a solution after a kinase reaction. The luminescent signal generated using KinaseGLO® directly correlates with ATP concentration, and therefore inversely correlates with kinase activity.
PI3K enzyme sample was thawed and diluted to 100 ng/μL in enzyme dilution buffer (50 mM HEPES, pH7.5, 3.0 mM MgCl2, 1.0 mM EGTA) and stored on ice. PI3Kα enzyme was diluted to a final concentration of 1 ng/μL in reaction buffer (for PI3Kα; 50 mM HEPES, pH7.5, 100 mM NaCl, 2.0 mM DTT, 3.0 mM MgCl2, 1.0 mM EGTA, 10 μM ATP) and gently mixed. 25 μL of this kinase reaction was then aliquoted into test wells in a Microfluor2 white 96-well plate (Thermo Scientific). As a preincubation step, 1 μl of 30× compound dilutions was added to the appropriate test wells to generate a ten point dose-response ranging from 0.0 μM-10 μM inhibitor. The enzyme-inhibitor mixture was then incubated for 30 minutes at 4° C. After this preincubation, […] (50 μM final concentration) was added to each test well to initiate the kinase reaction. Reactions were incubated at room temperature for 2 hours with moderate shaking. The KinaseGLO® luminescent reagent (Promega) was prepared according to the manufacturer's instructions. Both the KinaseGLO® buffer and substrate were allowed to thaw and equilibrate at room temperature for two hours prior to mixing and use. The PI3-kinase reaction was terminated by the addition of 30 μL of reconstituted KinaseGLO® reagent to each reaction well and then incubated in the dark for 10 minutes at room temperature. Luminescent signal was detected using a SpectraMax M5 (Molecular Devices). Maximal luminescence (no PI3K activity/maximal PI3K inhibition) was determined from reaction buffer plus SC-PI substrate only controls. The minimal signal (maximal PI3K activity) was determined by the 0.0 μM compound (DMSO only) control. IC50 values were calculated via non-linear regression using GraphPad Prism data analysis software.
Compounds were assayed against the Class I PI3Kα, PI3Kβ, PI3Kγ, PI3Kδ, PI3Kα(H1047R) and PI3Kα(E545K) in the KinaseGLO assay as described in Example 2, and against the Class IV PI3K mTOR in the radiometric assay. IC50 values (μM) were determined using 8-10 point half-log dose dilutions and calculated via nonlinear regression analysis using Graphpad Prism data analysis software.

[4] = molecular target: TRKC (Homo sapiens, UniProt Q16288); experiment: Radiometric HotSpot kinase assay, TRKC; assay type: biochemical; details: 1 μM compound, 10 μM ATP
Sequence of TRKC (Q16288 32-839): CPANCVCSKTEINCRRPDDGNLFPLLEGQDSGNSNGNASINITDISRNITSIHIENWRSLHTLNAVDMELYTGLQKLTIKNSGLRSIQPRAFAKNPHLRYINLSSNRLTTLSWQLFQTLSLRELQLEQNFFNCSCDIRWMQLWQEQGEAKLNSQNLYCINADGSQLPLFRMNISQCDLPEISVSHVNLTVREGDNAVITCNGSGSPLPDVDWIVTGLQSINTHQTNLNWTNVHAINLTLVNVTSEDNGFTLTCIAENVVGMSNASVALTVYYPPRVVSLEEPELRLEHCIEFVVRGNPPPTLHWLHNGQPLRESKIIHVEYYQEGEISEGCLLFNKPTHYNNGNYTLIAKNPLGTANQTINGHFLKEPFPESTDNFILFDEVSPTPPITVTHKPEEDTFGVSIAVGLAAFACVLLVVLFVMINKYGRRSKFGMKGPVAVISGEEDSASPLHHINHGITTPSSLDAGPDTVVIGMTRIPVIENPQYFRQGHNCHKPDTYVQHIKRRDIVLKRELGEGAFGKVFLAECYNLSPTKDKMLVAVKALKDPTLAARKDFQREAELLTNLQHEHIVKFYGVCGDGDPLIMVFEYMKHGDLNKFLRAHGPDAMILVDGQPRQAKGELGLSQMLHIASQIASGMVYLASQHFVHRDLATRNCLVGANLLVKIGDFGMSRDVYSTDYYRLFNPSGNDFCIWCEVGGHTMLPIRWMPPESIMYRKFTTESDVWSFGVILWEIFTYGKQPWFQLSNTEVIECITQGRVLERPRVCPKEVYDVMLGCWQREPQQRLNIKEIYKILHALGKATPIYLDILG
Protocol: as §1, §2

[5] = molecular target: PIM-1 (Homo sapiens, UniProt P11309); experiment: Radiometric HotSpot kinase assay, PIM-1; assay type: biochemical; details: 1 μM compound, 10 μM ATP
Sequence of PIM-1 (P11309 whole entry): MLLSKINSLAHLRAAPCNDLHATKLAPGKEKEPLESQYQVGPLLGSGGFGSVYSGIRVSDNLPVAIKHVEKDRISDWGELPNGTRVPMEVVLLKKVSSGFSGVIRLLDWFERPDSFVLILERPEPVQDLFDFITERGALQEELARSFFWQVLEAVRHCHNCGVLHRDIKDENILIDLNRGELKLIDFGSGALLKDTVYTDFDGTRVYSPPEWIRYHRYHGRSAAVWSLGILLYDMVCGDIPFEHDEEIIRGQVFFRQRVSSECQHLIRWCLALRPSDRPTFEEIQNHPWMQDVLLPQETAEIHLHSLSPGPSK
Protocol: as §1, §2

[6] = test system: HCT116 colorectal carcinoma cells; experiment: Caspase-GLO 3/7 assay, HCT116; assay type: cell-based; details: Homo sapiens, HCT-116, 24 hours, CaspaseGLO
Protocol: Caspase-GLO 3/7 Assay: To determine the ability of the PI3K inhibitor compounds of the invention to induce programmed cell death (apoptosis), caspase activity was monitored as an indicator of apoptosis. Human HCT116 colorectal carcinoma and PANC-1 pancreatic carcinoma cells were plated at 2000-8000 cells per well in white 96-well microplates and allowed to attach overnight. The following day the medium was removed by aspiration and the cells were washed once with 200 μL of DMEM containing 0.5% (v/v) FBS (assay medium). The cells were then incubated in 100 μL of assay medium containing increasing concentrations of the PI3K inhibitor compounds (from 0.003 μM to 10.0 μM in half-log dilutions) for 24 to 72 hours. Caspase activity was detected using the Caspase-GLO 3/7 assay (Promega) according to the manufacturer's instructions and measured on a Spectramax M5 multi-detection microplate reader (Molecular Devices Corp.). EC50 values were calculated via non-linear regression using GraphPad Prism data analysis software.
HCT116 cells were treated overnight with a pyrazoloquinoline compound of the invention, or with a commercially available dual PI3K(α,β,δ,γ)/mTOR inhibitor, or with a commercially available PI3K(α,β,δ,γ)-only inhibitor at concentrations of 0.5, 1.0 and 5.0 μM.

Sequence of PDGFRα(D842V) (P16234 24-1089 D842V): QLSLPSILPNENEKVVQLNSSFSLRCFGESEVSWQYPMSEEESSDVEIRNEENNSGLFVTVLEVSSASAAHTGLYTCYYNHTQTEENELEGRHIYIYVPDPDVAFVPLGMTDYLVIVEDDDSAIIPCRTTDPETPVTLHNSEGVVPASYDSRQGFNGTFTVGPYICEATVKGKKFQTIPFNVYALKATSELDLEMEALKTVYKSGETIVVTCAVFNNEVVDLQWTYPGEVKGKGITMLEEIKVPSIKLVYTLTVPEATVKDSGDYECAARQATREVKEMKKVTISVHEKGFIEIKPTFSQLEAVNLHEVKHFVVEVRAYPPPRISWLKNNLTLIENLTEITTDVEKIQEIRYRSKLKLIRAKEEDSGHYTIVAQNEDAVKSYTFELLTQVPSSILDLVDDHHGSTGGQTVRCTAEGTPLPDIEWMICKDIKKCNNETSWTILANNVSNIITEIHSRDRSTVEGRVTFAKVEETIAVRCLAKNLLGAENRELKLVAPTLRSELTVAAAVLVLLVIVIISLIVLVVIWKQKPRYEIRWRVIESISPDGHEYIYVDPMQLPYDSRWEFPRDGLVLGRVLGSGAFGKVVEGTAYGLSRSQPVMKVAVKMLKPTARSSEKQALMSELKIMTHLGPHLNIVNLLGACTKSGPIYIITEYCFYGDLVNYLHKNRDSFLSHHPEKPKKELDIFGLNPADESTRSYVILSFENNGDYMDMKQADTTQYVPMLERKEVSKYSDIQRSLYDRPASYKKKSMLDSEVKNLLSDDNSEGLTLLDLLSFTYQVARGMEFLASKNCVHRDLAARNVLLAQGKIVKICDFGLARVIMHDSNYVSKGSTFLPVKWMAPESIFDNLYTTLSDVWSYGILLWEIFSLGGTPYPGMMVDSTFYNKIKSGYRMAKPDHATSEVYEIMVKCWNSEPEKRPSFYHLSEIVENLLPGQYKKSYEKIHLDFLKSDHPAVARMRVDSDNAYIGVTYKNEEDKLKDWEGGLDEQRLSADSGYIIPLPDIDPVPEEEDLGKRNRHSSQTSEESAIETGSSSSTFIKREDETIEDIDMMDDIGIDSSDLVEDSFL

| Compound | IC50 [1] | IC50 [2] | IC50 [3] | inhibition at 1 µM [4] | inhibition at 1 µM [5] | EC50 [6] |
| --- | --- | --- | --- | --- | --- | --- |
| CC(C)(C#N)c1ccc(-c2n[nH]c3cnc4ccc(-c5cncnc5)cc4c23)cc1 [Compound 1108, 2-methyl-2-(4-(8-(pyrimidin-5-yl)-3H-pyrazolo[3,4-c]quinolin-1-yl)phenyl)propanenitrile] | > 100 nM | 12 to 20 nM and > 30 nM | < 10 nM | > 97% | 60 to 85% | – |
| COc1ccc(-c2ccc3ncc4[nH]nc(-c5ccc(C(C)(C)C#N)cc5)c4c3c2)cn1 [Compound 1118, 2-(4-(8-(6-methoxypyridin-3-yl)-3H-pyrazolo[3,4-c]quinolin-1-yl)phenyl)-2-methylpropanenitrile] | > 1000 nM | > 30 nM | < 10 nM | – | – | – |
| CC(C)(C#N)c1ccc(-c2n[nH]c3cnc4ccc(-c5cccc(Nc6ccccn6)c5)cc4c23)cc1 [Compound 1120, 2-methyl-2-(4-(8-(3-(pyridin-2-ylamino)phenyl)-3H-pyrazolo[3,4-c]quinolin-1-yl)phenyl)propanenitrile] | – | – | > 20 nM | – | – | – |
| Cc1cccc(-c2ccc3ncc4[nH]nc(-c5ccc(C(C)(C)C#N)cc5)c4c3c2)c1 [Compound 1123, 2-methyl-2-(4-(8-m-tolyl-3H-pyrazolo[3,4-c]quinolin-1-yl)phenyl)propanenitrile] | > 1000 nM | > 30 nM | – | > 60% | 50 to 60% | – |
| Cc1ccccc1-c1ccc2ncc3[nH]nc(-c4ccc(C(C)(C)C#N)cc4)c3c2c1 [Compound 1124, 2-methyl-2-(4-(8-o-tolyl-3H-pyrazolo[3,4-c]quinolin-1-yl)phenyl)propanenitrile] | – | > 30 nM | – | > 60% | – | – |
| CC(C)(C#N)c1ccc(-c2n[nH]c3cnc4ccc(-c5ccccc5)cc4c23)cc1 [Compound 1125, 2-methyl-2-(4-(8-phenyl-3H-pyrazolo[3,4-c]quinolin-1-yl)phenyl)propanenitrile] | > 1000 nM | > 30 nM | – | ≥ 75% | 60 to 85% | – |
| Cc1ccc(-c2ccc3ncc4[nH]nc(-c5ccc(C(C)(C)C#N)cc5)c4c3c2)cc1 [Compound 1126, 2-methyl-2-(4-(8-p-tolyl-3H-pyrazolo[3,4-c]quinolin-1-yl)phenyl)propanenitrile] | – | > 30 nM | – | – | – | – |
| CN[C@@H]1C[C@H]2O[C@@](C)([C@@H]1OC)n1c3ccccc3c3c4c(c5c6ccccc6n2c5c31)C(=O)NC4 [staurosporine] | – | – | – | – | – | 7 nM |

More lines, main results first:

| IC50 [1] | IC50 [2] | IC50 [3] | inhibition at 1 µM [4] | inhibition at 1 µM [5] | Compound | EC50 [6] |
| --- | --- | --- | --- | --- | --- | --- |
| – | 20 to 30 nM | > 20 nM | > 97% | > 95% | CC(C)(C#N)c1ccc(-c2n[nH]c3cnc4ccc(-c5ccn6ncnc6c5)cc4c23)cc1 [Compound 1111] | – |
| > 100 nM | > 30 nM | – | ≥ 75% | – | CC(C)(C#N)c1ccc(-c2n[nH]c3cnc4ccc(-c5cc(F)cc(F)c5)cc4c23)cc1 [Compound 1112, 2-(4-(8-(3,5-difluorophenyl)-3H-pyrazolo[3,4-c]quinolin-1-yl)phenyl)-2-methylpropanenitrile] | – |
| > 100 nM | > 30 nM | – | ≥ 70% | 50 to 60% | CC(C)(C#N)c1ccc(-c2n[nH]c3cnc4ccc(-c5cccc(Cl)c5)cc4c23)cc1 [Compound 1113, 2-(4-(8-(3-chlorophenyl)-3H-pyrazolo[3,4-c]quinolin-1-yl)phenyl)-2-methylpropanenitrile] | – |
| > 100 nM | > 30 nM | > 20 nM | – | – | CC(C)(C#N)c1ccc(-c2n[nH]c3cnc4ccc(-c5ccc6c(c5)CC=N6)cc4c23)cc1 [Compound 1114, 2-(4-(8-(3H-indol-5-yl)-3H-pyrazolo[3,4-c]quinolin-1-yl)phenyl)-2-methylpropanenitrile] | – |
| > 1000 nM | > 30 nM | – | > 60% | 60 to 85% | COc1cccc(-c2ccc3ncc4[nH]nc(-c5ccc(C(C)(C)C#N)cc5)c4c3c2)c1 [Compound 1115, 2-(4-(8-(3-methoxyphenyl)-3H-pyrazolo[3,4-c]quinolin-1-yl)phenyl)-2-methylpropanenitrile] | – |
| – | > 30 nM | – | ≥ 75% | 60 to 85% | CC(C)(C#N)c1ccc(-c2n[nH]c3cnc4ccc(-c5ccc(F)cc5)cc4c23)cc1 [Compound 1116, 2-(4-(8-(4-fluorophenyl)-3H-pyrazolo[3,4-c]quinolin-1-yl)phenyl)-2-methylpropanenitrile] | – |
| – | > 30 nM | – | > 50% | 60 to 85% | COc1ccc(-c2ccc3ncc4[nH]nc(-c5ccc(C(C)(C)C#N)cc5)c4c3c2)cc1 [Compound 1117, 2-(4-(8-(4-methoxyphenyl)-3H-pyrazolo[3,4-c]quinolin-1-yl)phenyl)-2-methylpropanenitrile] | – |
| > 100 nM | 12 to 20 nM | > 20 nM | > 97% | > 95% | CC(C)(C#N)c1ccc(-c2n[nH]c3cnc4ccc(-c5cccc(Nc6ccncc6)c5)cc4c23)cc1 [Compound 1121, 2-methyl-2-(4-(8-(3-(pyridin-4-ylamino)phenyl)-3H-pyrazolo[3,4-c]quinolin-1-yl)phenyl)propanenitrile] | – |
